Tests used:
3G8 cells = experiment: MTT cell growth and viability assay after fluorescent dye labeling; type: cell-based, murine; details: hydroethidine at 10 µg/ml, Figure 2
Source text: (§1) The effect of fluorescent dyes on cell viability can be measured using techniques well known to those skilled in the art. A most useful technique is described by Mosmann, T., J. of Immunol. Methods, 65:55 (1983) which measures cell viability as a function of cell number. Thus, the effect of fluorescent dyes on both cell viability and cell number can be measured simultaneously. The assay is based on the conversion of colorless tetrazolium salts by mitochrondrial dehydrogenase enzymes to a detectable colored product. A favored tetrazolium salt is MTT, or (3-(4,5- dimethylthylthiazol-2-yl)-2,5- diphenyl tetrazolium bromide).
(§2) Cell growth and viability was determined using the MTT assay as described by Mosmann, T., above. […] Each of the above cell lines was tested, and the results are shown in Figures 1, and 2 for 520C9 and 3G8 respectively. For both cell lines the assay was linear at least up to 10⁴ cells/well.
(§3) Next, the same cell lines were labeled in the presence or absence of either rhodamine 123 or hydroethidine, and subsequently cultured for three days during which cell number was measured. Cells were labeled in the presence of 0.5 µg/ml rhodamine 123 plus 10 µM verapamil, or 5 or 10 µg/ml hydroethidine. […]

520C9 cells = experiment: as above; type: cell-based, murine; details: labeled 20 minutes with hydroethidine 10 µg/ml at room temperature, washed, cultured three days in dye free medium; Figure 1
Source text: as §1, §2, §3

## CCN1c2cc(N)ccc2-c2ccc(N)cc2C1c1ccccc1 (stereo not drawn) [hydroethidine]
3G8 cells; labeled 20 minutes, cultured three days
  inhibition of 3G8 growth: does inhibit
3G8 cells
  start of inhibition of 3G8 growth: about 24 hours
520C9 cells
  growth rate and cell numbers of 520C9 cells compared to cells grown in medium lacking the compounds: virtually identical

Reference: patent publication EP0436598B1, “CELL SORTING TECHNIQUE AND APPLICATIONS THEREOF” (CETUS ONCOLOGY CORPORATION, priority 1988, dated 1990)
